Reference: paper PMC8565842, “Structural snapshots of human PepT1 and PepT2 reveal mechanistic insights into substrate and drug transport across epithelial membranes” (Science Advances, 2021)

Molecular target: T1, HsPepT2 (Homo sapiens, UniProt Q16348)
T1 construct: The wild-type HsPepT2 gene was cloned into a pXLG vector; expressed in transfected cells; host or cells: HEK293F cells, transient transfection (pXLG vector)
T1 sequence (Q16348 1-729): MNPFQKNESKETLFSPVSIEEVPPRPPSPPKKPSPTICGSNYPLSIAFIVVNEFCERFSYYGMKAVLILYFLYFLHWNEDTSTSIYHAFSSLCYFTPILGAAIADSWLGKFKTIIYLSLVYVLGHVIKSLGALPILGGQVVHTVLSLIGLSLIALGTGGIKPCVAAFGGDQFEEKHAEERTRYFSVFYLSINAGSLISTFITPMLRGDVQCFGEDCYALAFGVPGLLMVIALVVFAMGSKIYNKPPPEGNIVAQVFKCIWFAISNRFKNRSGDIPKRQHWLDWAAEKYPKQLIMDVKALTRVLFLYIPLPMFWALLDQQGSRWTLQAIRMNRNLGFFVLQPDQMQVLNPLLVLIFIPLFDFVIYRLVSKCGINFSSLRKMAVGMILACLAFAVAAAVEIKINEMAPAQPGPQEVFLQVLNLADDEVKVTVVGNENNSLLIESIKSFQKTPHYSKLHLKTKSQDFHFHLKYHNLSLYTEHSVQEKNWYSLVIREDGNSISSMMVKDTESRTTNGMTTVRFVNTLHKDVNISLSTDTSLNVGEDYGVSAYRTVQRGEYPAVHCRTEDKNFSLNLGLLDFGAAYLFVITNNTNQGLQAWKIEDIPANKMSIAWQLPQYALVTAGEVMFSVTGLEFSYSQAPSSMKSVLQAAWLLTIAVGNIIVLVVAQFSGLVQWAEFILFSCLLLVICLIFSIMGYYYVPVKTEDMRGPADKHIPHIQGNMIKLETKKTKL
Assay: Whole-cell AK-AMCA uptake competition assay in HsPepT2-transfected HEK293F cells
Type: cell-based
Settings: for IC50: HsPepT2-transfected HEK293F cells, 50 μM β-Ala-Lys-AMCA, pH 6.0, 10 min at 37°C, read-out: IC50, concentration-dependent competition of β-Ala-Lys-AMCA uptake
Experimental: The wild-type […]2 gene was cloned into a pXLG vector ([61]) containing an expression cassette composed of an N-terminal hexa-histidine tag followed by enhanced green fluorescent protein and a tobacco etch virus protease cleavage site. […] The reaction was stopped by adding 200 μl of ice-cold buffer, and the cells were then washed three times with the same buffer. Last, the cells were resuspended in 200 μl of buffer, and the fluorescence was measured in an M1000 microplate reader (TECAN) with excitation at 350 nm and emission at 450 nm. All experiments were performed in triplicates. […] For concentration-dependent uptake experiments, IC50 values were processed in GraphPad Prism 9.0 (GraphPad Software) using sigmoidal four-parameter curve fitting.

IC50	Uptake of the fluorescent reporter after HsPepT2 overexpression (HEK293 cells overexpressing HsPepT2)	Molecule
373.5 ± 1.6 µM		NCC(=O)CCC(=O)O [5-aminolevulinic acid]
368.9 ± 1.5 µM		CC(C)[C@H](N)C(=O)OCC(CO)OCn1cnc2c(=O)nc(N)[nH]c21 (stereo partly drawn) [valganciclovir]
	specific uptake	ß-Ala-Lys-AMCA
